Organism: Rattus norvegicus
Assay: Open TG-GATES - Regimen: Single
Format: toxicity, organism-based, Sprague-Dawley
Design: regimen Single, gender Male, age 6 weeks
Settings: in vivo, po, 0 mg/kg, route gavage, dose level Control; for APTT / Bas / Eos / Fbg / Hb / Ht / Lym / MCH / MCHC / MCV / Mono / Neu / PT / Plat / RBC / Ret / WBC: tissue Blood; for KIDNEY_L / KIDNEY_R / KIDNEY_TOTAL: tissue Kidney; for LIVER: tissue Liver; for A/G / ALP / ALT / AST / BUN / CRE / Ca / Cl / DBIL / GLC / IP / K / LDH / Na / PL / RALB / TBIL / TC / TG / TP / gamma-GTP: tissue Plasma

Nc1nc(N)c2nc(-c3ccccc3)c(N)nc2n1
TERMINAL_BW (3 h): 212 g
APTT (3 h): 16.9 s
Bas (3 h): 0%
Eos (3 h): 1%
Fbg (3 h): 287.4 mg/dL
Hb (3 h): 13.9 g/dL
Ht (3 h): 42%
Lym (3 h): 79.2%
MCH (3 h): 21.4 pg
MCHC (3 h): 33%
MCV (3 h): 64.6 fL
Mono (3 h): 3.2%
Neu (3 h): 16%
PT (3 h): 14.2 s
Plat (3 h): 114.1 x10_4/uL
RBC (3 h): 651 x10_4/ul
Ret (3 h): 7.4%
WBC (3 h): 92.6 x10_2/uL
KIDNEY_L (3 h): 1 g
KIDNEY_R (3 h): 1 g
KIDNEY_TOTAL (3 h): 1.9 g
LIVER (3 h): 9.3 g
A/G (3 h): 1
ALP (3 h): 1479.4 IU/L
ALT (3 h): 44.2 IU/L
AST (3 h): 76.6 IU/L
BUN (3 h): 9.4 mg/dL
CRE (3 h): 0.2 mg/dL
Ca (3 h): 11 mg/dL
Cl (3 h): 105.2 meq/L
DBIL (3 h): 0.008 mg/dL
GLC (3 h): 173.4 mg/dL
IP (3 h): 9.2 mg/dL
K (3 h): 3.9 meq/L
LDH (3 h): 58.4 IU/L
Na (3 h): 143.2 meq/L
PL (3 h): 143.4 mg/dL
RALB (3 h): 2.6 g/dL
TBIL (3 h): 0.06 mg/dL
TC (3 h): 79.6 mg/dL
TG (3 h): 50.8 mg/dL
TP (3 h): 5.3 g/dL
gamma-GTP (3 h): 1 IU/L
TERMINAL_BW (6 h): 211.8 g
APTT (6 h): 16.8 s
Bas (6 h): 0%
Eos (6 h): 0.4%
Fbg (6 h): 302.8 mg/dL
Hb (6 h): 13.9 g/dL
Ht (6 h): 42.3%
Lym (6 h): 77.2%
MCH (6 h): 21.3 pg
MCHC (6 h): 32.9%
MCV (6 h): 64.8 fL
Mono (6 h): 2.6%
Neu (6 h): 19%
PT (6 h): 14 s
Plat (6 h): 123.2 x10_4/uL
RBC (6 h): 653.2 x10_4/ul
Ret (6 h): 7.4%
WBC (6 h): 93.6 x10_2/uL
KIDNEY_L (6 h): 1 g
KIDNEY_R (6 h): 1 g
KIDNEY_TOTAL (6 h): 1.9 g
LIVER (6 h): 9.6 g
A/G (6 h): 0.9
ALP (6 h): 1424.2 IU/L
ALT (6 h): 34.6 IU/L
AST (6 h): 69.2 IU/L
BUN (6 h): 9.6 mg/dL
CRE (6 h): 0.2 mg/dL
Ca (6 h): 10.8 mg/dL
Cl (6 h): 104.6 meq/L
DBIL (6 h): 0.012 mg/dL
GLC (6 h): 179.2 mg/dL
IP (6 h): 9.7 mg/dL
K (6 h): 4.2 meq/L
LDH (6 h): 57.2 IU/L
Na (6 h): 142.8 meq/L
PL (6 h): 146.8 mg/dL
RALB (6 h): 2.6 g/dL
TBIL (6 h): 0.066 mg/dL
TC (6 h): 77.8 mg/dL
TG (6 h): 84 mg/dL
TP (6 h): 5.3 g/dL
gamma-GTP (6 h): 1.2 IU/L
TERMINAL_BW (9 h): 210.8 g
APTT (9 h): 16.3 s
Bas (9 h): 0.2%
Eos (9 h): 1%
Fbg (9 h): 304.2 mg/dL
Hb (9 h): 13.6 g/dL
Ht (9 h): 41.1%
Lym (9 h): 73%
MCH (9 h): 20.5 pg
MCHC (9 h): 33%
MCV (9 h): 62.2 fL
Mono (9 h): 2%
Neu (9 h): 23.2%
PT (9 h): 14 s
Plat (9 h): 119.1 x10_4/uL
RBC (9 h): 661.2 x10_4/ul
Ret (9 h): 7.1%
WBC (9 h): 83.6 x10_2/uL
KIDNEY_L (9 h): 1 g
KIDNEY_R (9 h): 1 g
KIDNEY_TOTAL (9 h): 1.9 g
LIVER (9 h): 8.5 g
A/G (9 h): 1
ALP (9 h): 1497.4 IU/L
ALT (9 h): 36.6 IU/L
AST (9 h): 68 IU/L
BUN (9 h): 10 mg/dL
CRE (9 h): 0.2 mg/dL
Ca (9 h): 10.6 mg/dL
Cl (9 h): 106 meq/L
DBIL (9 h): 0.008 mg/dL
GLC (9 h): 173.8 mg/dL
IP (9 h): 9.4 mg/dL
K (9 h): 3.9 meq/L
LDH (9 h): 53.2 IU/L
Na (9 h): 143.6 meq/L
PL (9 h): 132.6 mg/dL
RALB (9 h): 2.5 g/dL
TBIL (9 h): 0.058 mg/dL
TC (9 h): 74 mg/dL
TG (9 h): 41.4 mg/dL
TP (9 h): 5.2 g/dL
gamma-GTP (9 h): 1.4 IU/L
TERMINAL_BW (24 h): 228.1 g
APTT (24 h): 17.1 s
Bas (24 h): 0%
Eos (24 h): 1%
Fbg (24 h): 291 mg/dL
Hb (24 h): 14 g/dL
Ht (24 h): 41.9%
Lym (24 h): 76%
MCH (24 h): 21.5 pg
MCHC (24 h): 33.4%
MCV (24 h): 64.3 fL
Mono (24 h): 2.2%
Neu (24 h): 19.8%
PT (24 h): 13.7 s
Plat (24 h): 120.8 x10_4/uL
RBC (24 h): 652 x10_4/ul
Ret (24 h): 6.9%
WBC (24 h): 78.2 x10_2/uL
KIDNEY_L (24 h): 1 g
KIDNEY_R (24 h): 1 g
KIDNEY_TOTAL (24 h): 2 g
LIVER (24 h): 10.9 g
A/G (24 h): 0.9
ALP (24 h): 1674.6 IU/L
ALT (24 h): 47.4 IU/L
AST (24 h): 72.2 IU/L
BUN (24 h): 15 mg/dL
CRE (24 h): 0.2 mg/dL
Ca (24 h): 11.2 mg/dL
Cl (24 h): 104.2 meq/L
DBIL (24 h): 0.01 mg/dL
GLC (24 h): 188.6 mg/dL
IP (24 h): 8.2 mg/dL
K (24 h): 4.2 meq/L
LDH (24 h): 72.4 IU/L
Na (24 h): 142.6 meq/L
PL (24 h): 158.6 mg/dL
RALB (24 h): 2.7 g/dL
TBIL (24 h): 0.044 mg/dL
TC (24 h): 80.2 mg/dL
TG (24 h): 109.8 mg/dL
TP (24 h): 5.5 g/dL
gamma-GTP (24 h): 1 IU/L

Reference: ChEMBL document CHEMBL3885861, “Open TG-GATES”
